Tested on: peach aphid (Myzus persicae)
Experiment: Insecticidal test against peach aphid, infested Chinese cabbage leaves sprayed
Assay type: in vivo
Conditions: peach aphid (Myzus persicae) on Chinese cabbage leaves, sprayed with 500 ppm composition unless otherwise stated, mortality assessed after 3 days
Description: This Example illustrates the insecticidal properties of the compounds of Formula I. The activity of the compounds of Formula I was determined using a variety of pests. The pests were treated with a liquid composition containing 500 parts per million (ppm) by weight of the compound unless otherwise stated. The compositions were made by dissolving the compound in acetone and ethanol (50:50) mixture and diluting the solutions with water containing 0.05% by weight of a wetting agent sold under the trade name “SYNPERONIC” NP8 until the liquid composition contained the required concentration of the compound. “SYNPERONIC” is a Registered Trade Mark.
The test procedure adopted with regard to each pest was basically the same and comprised supporting a number of the pests on a medium which was usually a substrate, a host plant or a foodstuff on which the pests feed, and treating either or both the medium and the pests with the compositions. The mortality of the pests was then assessed at periods usually varying from two to five days after the treatment.
In this test Chinese cabbage leaves were infested with aphids, the infested leaves were sprayed with the test composition, and the mortality assessed after 3 days.

SMILES | Score (grading of mortality)
COC(=O)C(C)N1C2CCC1CC(C#N)(c1cncc(Cl)c1)C2 (racemic) [Compound 212] | A (A indicates 80-100% mortality)
COc1ccc(C2(C#N)CC3CCC(C2)N3Cc2ccccc2)cc1 (single isomer, unassigned) [Compound 6] | C (C indicates less than 40% mortality)
COc1ccc(C2(C#N)CC3CCC(C2)N3Cc2ccccc2)cc1 (single isomer, unassigned) [Compound 7] | C (C indicates less than 40% mortality)
N#CC1(c2ccccc2)CC2CCC(C1)N2Cc1ccccc1 (single isomer, unassigned) [Compound 31] | C (C indicates less than 40% mortality)
N#CC1(c2ccccc2)CC2CCC(C1)N2Cc1ccccc1 (single isomer, unassigned) [Compound 32] | A (A indicates 80-100% mortality)
COC(=O)C(C)N1C2CCC1CC(C#N)(c1cncc(Cl)c1)C2 (single isomer, unassigned) [Compound 211] | A (A indicates 80-100% mortality)
COC(=O)C(C)N1C2CCC1CC(C#N)(c1cncc(Cl)c1)C2 (single isomer, unassigned) [Compound 213] | A (A indicates 80-100% mortality)
CN1C2CCC1CC(C#N)(c1cc(Cl)cc(Cl)c1)C2 (centres unmarked) [Compound 1] | A (A indicates 80-100% mortality)
CN1C2CCC1CC(C#N)(c1cc(F)cc(F)c1)C2 (stereo not drawn) [Compound 2, exo-3-(3,5-difluorophenyl)-endo-3-cyano-8-methyl-8-azabicyclo[3.2.1]octane] | A (A indicates 80-100% mortality)
CN1C2CCC1CC(C#N)(c1cccc(F)c1F)C2 (centres unmarked) [Compound 3] | A (A indicates 80-100% mortality)
CN1C2CCC1CC(C#N)(c1c(F)c(F)c(F)c(F)c1F)C2 (centres unmarked) [Compound 4] | A (A indicates 80-100% mortality)
CN1C2CCC1CC(C#N)(c1cccc(Cl)c1Cl)C2 (centres unmarked) [Compound 5] | A (A indicates 80-100% mortality)
N#CC1(c2ccccc2)CC2CCC(C1)N2Cc1ccccc1 (centres unmarked) [Compound 8, 3-phenyl-3-cyano-8-benzyl-8-azabicyclo[3.2.1]octane] | A (A indicates 80-100% mortality)
N#CC1(c2cc(F)cc(F)c2)CC2CCC(C1)N2 (centres unmarked) [Compound 9] | A (A indicates 80-100% mortality)
N#CC1(c2cc(F)cc(F)c2)CC2CCC(C1)N2Cc1ccccc1 (centres unmarked) [Compound 10] | A (A indicates 80-100% mortality)
N#CC1(c2cc(F)cc(F)c2)CC2CCC(C1)N2Cc1cnc(Cl)c(Cl)c1 (centres unmarked) [Compound 11] | A (A indicates 80-100% mortality)
N#CC1(c2cc(F)cc(F)c2)CC2CCC(C1)N2Cc1ccccn1 (centres unmarked) [Compound 12] | A (A indicates 80-100% mortality)
Cc1cccc(CN2C3CCC2CC(C#N)(c2cc(F)cc(F)c2)C3)c1 (centres unmarked) [Compound 13] | B (B indicates 40-79% mortality)
N#CC1(c2cc(F)cc(F)c2)CC2CCC(C1)N2Cc1ccc(Cl)cc1 (centres unmarked) [Compound 14] | A (A indicates 80-100% mortality)

SMILES | Score (grading of mortality)
N#CC1(c2cc(F)cc(F)c2)CC2CCC(C1)N2Cc1cccnc1 (centres unmarked) [Compound 15] | A (A indicates 80-100% mortality)
N#CC1(c2cc(F)cc(F)c2)CC2CCC(C1)N2Cc1cc(Cl)cc(Cl)c1 (centres unmarked) [Compound 17] | C (C indicates less than 40% mortality)
N#CC1(c2cc(F)cc(F)c2)CC2CCC(C1)N2CC=C(F)F (centres unmarked) [Compound 18] | A (A indicates 80-100% mortality)
N#CC1(c2cc(F)cc(F)c2)CC2CCC(C1)N2CC(O)c1ccccc1 (centres unmarked) [Compound 19] | C (C indicates less than 40% mortality)
N#CC1(c2cc(F)cc(F)c2)CC2CCC(C1)N2C(CO)c1ccccc1 (centres unmarked) [Compound 20] | C (C indicates less than 40% mortality)
C=CCN1C2CCC1CC(C#N)(c1cc(F)cc(F)c1)C2 (centres unmarked) [Compound 21] | A (A indicates 80-100% mortality)
C#CCN1C2CCC1CC(C#N)(c1cc(F)cc(F)c1)C2 (centres unmarked) [Compound 22] | A (A indicates 80-100% mortality)
N#CC1(c2cc(F)cc(F)c2)CC2CCC(C1)N2CCF (centres unmarked) [Compound 23] | A (A indicates 80-100% mortality)
N#CC1(c2cc(F)cc(F)c2)CC2CCC(C1)N2CCO (centres unmarked) [Compound 24] | A (A indicates 80-100% mortality)
COCCN1C2CCC1CC(C#N)(c1cc(F)cc(F)c1)C2 (centres unmarked) [Compound 25] | A (A indicates 80-100% mortality)
N#CCCN1C2CCC1CC(C#N)(c1cc(F)cc(F)c1)C2 (centres unmarked) [Compound 26] | B (B indicates 40-79% mortality)
N#CC1(c2cc(F)cc(F)c2)CC2CCC(C1)N2Cc1ccc(Cl)s1 (centres unmarked) [Compound 27] | A (A indicates 80-100% mortality)
N#CC1(c2cc(F)cc(F)c2)CC2CCC(C1)N2c1cccc(Cl)n1 (centres unmarked) [Compound 28] | C (C indicates less than 40% mortality)
Cc1ncc(CN2C3CCC2CC(C#N)(c2cc(F)cc(F)c2)C3)s1 (centres unmarked) [Compound 29] | B (B indicates 40-79% mortality)
COC(=N)CN1C2CCC1CC(C#N)(c1cc(F)cc(F)c1)C2 (centres unmarked) [Compound 30] | A (A indicates 80-100% mortality)
CN1C2CCC1CC(C#N)(c1cccnc1)C2 (stereo not drawn) [Compound 33, exo-3-(pyrid-3-yl)-endo-3-cyano-8-methyl-8-azabicyclo[3.2.1]octane] | A (A indicates 80-100% mortality)
N#C[C@@]1(c2cccnc2)C[C@H]2CC[C@@H](C1)N2CCF [Compound 34, exo-3-(pyrid-3-yl)-endo-3-cyano-8-(2-fluoroethyl)-8-azabicyclo[3.2.1]octane] | A (A indicates 80-100% mortality)
C=CCN1C2CCC1CC(C#N)(c1cccnc1)C2 (centres unmarked) [Compound 35] | A (A indicates 80-100% mortality)
N#CC1(c2cccnc2)CC2CCC(C1)N2 (stereo not drawn) [Compound 36, exo-3-(pyrid-3-yl)-endo-3-cyano-8-azabicyclo[3.2.1]octane] | A (A indicates 80-100% mortality)

SMILES | Score (grading of mortality)
N#CC1(c2cccnc2)CC2CCC(C1)N2Cc1ccccc1 (stereo not drawn) [Compound 37, exo-3-(pyrid-3-yl)-endo-3-cyano-8-benzyl-8-azabicyclo[3.2.1]octane] | A (A indicates 80-100% mortality)
CCN1C2CCC1CC(C#N)(c1cccnc1)C2 (centres unmarked) [Compound 38] | A (A indicates 80-100% mortality)
CC(C)(C)OC(=O)CN1C2CCC1CC(C#N)(c1cccnc1)C2 (centres unmarked) [Compound 39] | C (C indicates less than 40% mortality)
C[n+]1cccc(C2(C#N)CC3CCC(C2)N3C(=O)OC(C)(C)C)c1.[I-] (centres unmarked) [Compound 40] | A (A indicates 80-100% mortality)
CN1C2CCC1CC(C#N)(c1ccc(Cl)nn1)C2 (stereo not drawn) [Compound 41, exo-3-(6-chloropyridazin-3-yl)-endo-3-cyano-8-methyl-8-azabicyclo[3.2.1]octane] | A (A indicates 80-100% mortality)
CCCN1C2CCC1CC(C#N)(c1cccnc1)C2 (stereo not drawn) [Compound 42, exo-3-(pyrid-3-yl)-endo-3-cyano-8-(prop-1-yl)-8-azabicyclo[3.2.1]octane] | A (A indicates 80-100% mortality)
CN1C2CCC1CC(C#N)(c1cncc(Cl)n1)C2 (stereo not drawn) [Compound 43, exo3-(6-chloropyrazin-2-yl)-endo-3-cyano-8-methyl-8-azabicyclo[3.2.1]octane] | A (A indicates 80-100% mortality)
CS(=O)(=O)CS(=O)(=O)N1C2CCC1CC(C#N)(c1cccnc1)C2 (stereo not drawn) [Compound 44, exo-3-(pyrid-3-yl)-endo-3-cyano-8-(methylsulphonylmethylsulphonyl)-8-azabicyclo[3.2.1]octane] | A (A indicates 80-100% mortality)
CS(=O)(=O)N1C2CCC1CC(C#N)(c1cccnc1)C2 (centres unmarked) [Compound 45] | C (C indicates less than 40% mortality)
CN1C2CCC1CC(C#N)(c1ccc(Cl)nc1)C2 (stereo not drawn) [Compound 46, exo-3-(6-chloropyrid-3-yl)-endo-3-cyano-8-methyl-8-azabicyclo[3.2.1]octane] | A (A indicates 80-100% mortality)
COCN1C2CCC1CC(C#N)(c1cccnc1)C2 (centres unmarked) [Compound 47] | A (A indicates 80-100% mortality)
CCOCN1C2CCC1CC(C#N)(c1cccnc1)C2 (centres unmarked) [Compound 48] | A (A indicates 80-100% mortality)
N#CCN1C2CCC1CC(C#N)(c1cccnc1)C2 (centres unmarked) [Compound 49] | A (A indicates 80-100% mortality)
CCOC(=O)CN1C2CCC1CC(C#N)(c1cccnc1)C2 (centres unmarked) [Compound 50] | A (A indicates 80-100% mortality)
COC(=O)CN1C2CCC1CC(C#N)(c1cccnc1)C2 (stereo not drawn) [Compound 51, exo-3-(pyrid-3-yl)-endo-3-cyano-8-(methoxycarbonylmethyl)-8-azabicyclo[3.2.1]octane] | A (A indicates 80-100% mortality)
CN1C2CCC1CC(C#N)(c1ccc([N+](=O)[O-])cc1F)C2 (centres unmarked) [Compound 52] | C (C indicates less than 40% mortality)
CN1C2CCC1CC(C#N)(c1cccc(F)c1)C2 (centres unmarked) [Compound 53] | A (A indicates 80-100% mortality)
N#CC1(c2cccnc2)CC2CCC(C1)N2CCO (centres unmarked) [Compound 54] | A (A indicates 80-100% mortality)

From patent US6573275B1, “Bicyclic amines” (Syngenta Limited, priority 1995, dated 2003)
